# Test results: patent US20150159169A1, “Plants Tolerant to HPPD Inhibitor Herbicides” (Bayer CropScience AG, priority 2009, published 2015)
# Entries after “also recorded” stand apart in the source; their conditions may differ.
# Experiments:
# [1] = system: tobacco calli containing SEQ ID No. 11 (Arabidopsis thaliana HPPD); experiment: Rooting of calli on tembotrione media; assay type: cell-based, Nicotiana tabacum; conditions: 6 to 12 weeks, calli with SEQ ID No. 11
# Method: (§1) The leaf disks were co-cultivated for 2 days with Agrobacterium tumefaciens cells containing either the binary vector FMP27ebv or AtHPPDbv. Then the leaf disks were transferred to a media allowing the regeneration of shoots for 6 weeks on MS (Musharige and Skoog, (1962), Physiol Plant 15(3): 473-497) media supplemented with BAP (1 mg/mL; Benzylaminopurine), carbenicillin (250 mg/mL), cefotaxine (250 mg/mL), kanamycin (75 mg/mL) and tembotrione (10^−6 M)
# (§2) Regenerated calli were transferred on media to induce the development of roots for 6 to 12 weeks: MS (1/2), supplemented with carbenicillin (250 mg/mL), cefotaxine (250 mg/mL), kanamycin (75 mg/mL), and tembotrione (10^−6 M).
# (§3) Regenerated shoot calli from a cell transformed with a nucleic acid sequence encoding an HPPD comprising SEQ ID No. 11 (Arabidopsis thaliana) or SEQ ID No. 7 (Kordia algicida) were transferred to a media inducing root growth which media was further supplemented with the HPPD inhibitor tembotrione for 6 to 12 weeks.
# [2] = system: tobacco calli containing SEQ ID No. 7 (Kordia algicida HPPD); experiment: Rooting of calli on tembotrione media; assay type: cell-based, Nicotiana tabacum; conditions: 6 to 12 weeks, calli with SEQ ID No. 7
# Method: as §1, §2, §3
# [3] = system: soybean events expressing the FMP27 HPPD protein; experiment: Soybean greenhouse response to tembotrione; assay type: in vivo; conditions: 100 g AI/ha, ten days after application; eight events
# Method: Plants containing the transgene were then sprayed with HPPD inhibitor herbicides, as for example with tembotrione at a rate of 100 g AI/ha. Ten days after the application the symptoms due to the application of the herbicide were evaluated and compared to the symptoms observed on wild type plants under the same conditions. Eight events expressing the FMP27 HPPD protein have been generated from the green shoots of above and were transferred to the greenhouse. Four weeks after acclimation, i.e. plants at a developmental stage of 3-4 internodes were treated with 100 g AI/ha tembotrione prepared from a WP 20 formulation supplemented with ammonium sulfate and methyl ester raps oil. Ten days after application, the symptoms caused by the application of the HPPD inhibitor herbicide were evaluated and compared to the symptoms observed on treated non-transgenic wild-type soybean plants.
# [4] = system: rice shoots containing FMP27e; experiment: Bleaching of rice shoots on MS/2 with tembotrione; assay type: cell-based; conditions: 2 weeks
# Method: (§4) Rice transformation is achieved using methods well known in the art. Briefly, the Agrobacterium tumefaciens mediated transformation of rice was performed using immature embryos, from the restorer line 6G4317. Briefly, panicles from donor plants were harvested 8-12 days after pollination. The lemma of the immature seed was removed. Seeds were thereafter sterilized using a NaOCl based solution and Tween. The seeds were preinduced with […]. Agrobacterium tumefaciens cells are then co-cultivated with the preinduced seeds in presence of acetosyringone for 4 days at 24° C. in the dark. Thereafter, coleoptile from embryos are removed and washed, then put on a media supplemented with phosphinothricin for 3 weeks at 28° C. under a photoperiod rhythm of 16 hours. Then the growing calli were cut off from the embryos, and transferred to fresh media containing triacillin, phosphinothricin, L-proline and copper (II) sulfate.
# (§5) For each callus-line and per Tembotrione concentration, 3 shoots, and randomly isolated from different callus pieces, were transferred to MS/2 with Tembotrione. As a general rule, transfer of the shoots from regeneration medium to MS/2 occurred 9 weeks after calli had been put on regeneration medium.
# (§6) Cultures were incubated at 26.5° C. (16 hrs. photoperiod) and evaluation of symptoms occurred 2 weeks later.
# (§7) New developing leaves of the shoots transferred have been scored on the basis of bleaching and categorized in 3 groups:
# (§8) a) no bleaching b) intermediate bleaching c) complete bleaching
# (§9) Within the category Intermediate bleaching′ a distinction has been made between shoots having new leaves showing only very little bleaching symptoms and thus tending to green leaves, and shoots with new leaves almost completely bleached.
# [5] = system: rice shoots containing AtHPPD; experiment: Bleaching of rice shoots on MS/2 with tembotrione; assay type: cell-based; conditions: 2 weeks
# Method: as §4, §5, §6, §7, §8, §9
# wild type rice plants = experiment: Rice glasshouse response to tembotrione, injury classes; assay type: in vivo; conditions: 100 g AI/ha, 7 DAT; no transgene
# Method: (§10) T0 rooted plantlets (either selected on phosphinothricin alone or on phosphinothricin supplemented with tembotrione) were transferred to soil in the glasshouse. Following an acclimation period, sufficiently grown plants were treated with the different HPPD inhibitor herbicides. As an example, T0 plants were sprayed with tembotrione of formulation type WP20 (100 g AI/ha) supplemented with ammonium sulfate and methyl ester raps oil. Seven days after the spray application, the symptoms due to the application of the herbicide were evaluated and compared the symptoms observed on wild type plants submitted to the same treatment.
# (§11) The plants were classified in three categories based on the phenotype developed in response to the herbicide seven days after the treatment.
# [6] = system: T0 rice plants containing AtHPPD; experiment: as above; assay type: in vivo; conditions: 100 g AI/ha, 7 DAT
# Method: as §10, §11
# [7] = system: T0 rice plants containing FMP27e; experiment: as above; assay type: in vivo; conditions: 100 g AI/ha, 7 DAT
# Method: as §10, §11
compound,measurement,setting,value
"CS(=O)(=O)c1ccc(C(=O)C2C(=O)CCCC2=O)c(Cl)c1COCC(F)(F)F [Tembotrione, 2-[2-chloro-4-(methylsulfonyl)-3-[(2,2,2,-tri-fluoroethoxy)methyl]benzoyl]-1,3-cyclo-hexanedione]",% Elongation & rooting on 10^−6M tembotrione,[1],0%
same,% Elongation & rooting on 10^−6M tembotrione,[2],62%
same,bleaching symptoms of events,[3],Two of the eight events didn't show any bleaching phenotype; also recorded: One event showed transitory light bleaching symptoms but recovered 14 days after tembotrione application; also recorded: remaining five events exhibited the bleaching like non-transgenic wild-type soybean plant
same,N^o of shoots completely bleached,[4]; 1 μM,10
same,N^o of shoots with intermediate bleaching,[4]; 1 μM,19
same,N^o of shoots without bleaching,[4]; 1 μM,28
same,N^o of shoots completely bleached,[4]; 5 μM,36
same,N^o of shoots with intermediate bleaching,[4]; 5 μM,21
same,N^o of shoots without bleaching,[4]; 5 μM,0
same,N^o of shoots completely bleached,[5]; 1 μM,12
same,N^o of shoots with intermediate bleaching,[5]; 1 μM,19
same,N^o of shoots without bleaching,[5]; 1 μM,27
same,N^o of shoots completely bleached,[5]; 5 μM,58
same,N^o of shoots with intermediate bleaching,[5]; 5 μM,2
same,N^o of shoots without bleaching,[5]; 5 μM,0
same,"Class I, number of plants (no injuries)",wild type rice plants,0
same,"Class II, number of plants (injury: 10-40%)",wild type rice plants,0
same,"Class III, number of plants (injury: 41-100%)",wild type rice plants,20
same,"Class I, number of plants (no injuries)",[6],1
same,"Class II, number of plants (injury: 10-40%)",[6],13
same,"Class III, number of plants (injury: 41-100%)",[6],9
same,"Class I, number of plants (no injuries)",[7],2
same,"Class II, number of plants (injury: 10-40%)",[7],17
same,"Class III, number of plants (injury: 41-100%)",[7],4
